Columns and labels:
[1] = test system: Protéine C bovine; assay: Hydrolysis rate of chromogenic substrates by activated bovine protein C (pNA release, OD at 405 nm); format: biochemical; settings: compared with reference product A4; underlying results expressed in ΔOD/minute at 405 nm, TEA buffer pH 8,4
Text: (§1) L'activité des dipeptides suivant l'invention et des tripeptides consignés dans le tableau I a été étudiée sur la thrombine humaine, la plasmine humaine, le Facteur Xa humaine et la Protéine C bovine, les tripeptides A1-A4 étant les substrats de référence du commerce. La libération du marquer HR₁ (i.e. amine H₂NRʹ₁), qui est objectivée par la variation de OD pendant l'hydrolyse enzymatique des substrats, sert d'outil de comparaison.
(§2) La lecture de OD est en général effectuée à 300-470 nm, et plus précisément à 405 nm quand R₁ est pNA, pendant environ 5 minutes.
(§3) Les essais ont été réalisés sur appareil GILFORD 203 S pour automatiser la lecture des échantillons et standardiser leur traitement.
(§4) On prépare des solutions dans du sérum physiologique renfermant chacune un enzyme : thrombine humaine 3 UNIH/ml Facteur Xa humain 3,7 nkat/ml plasmine humaine 2,3 nkat/ml protéine C bovine activée 10µg/ml
(§5) On dissout chaque peptide à tester dans le l'eau à une concentration de 10 mg/ml.
(§6) 400 µl d'enzyme dilué au 1/2 dans du tampon TEA (pH 8,4) sont ajoutés à 200 µl de chacun des différents peptides à tester. On détermine les vitesses d'hydrolyse desdits substrats en suivant l'évolution de la libération de pNA. Cette évolution peut être suivie par la lecture de la varition de OD par unité de temps (ΔOD/minute) à 405 nm.

[2] = test system: plasmine humaine; assay: Hydrolysis rate of chromogenic substrates by human plasmin (pNA release, OD at 405 nm); format: biochemical; settings: compared with reference product A3; underlying results expressed in ΔOD/minute at 405 nm, TEA buffer pH 8,4
Text: as §1, §2, §3, §4, §5, §6

With MM-L-4Hyp-L-Arg-pNA, H-TFA [EX 10] the “sensibilité à la protéine C” value [1] was “plus sensibles à la protéine C que le produit de référence A4” and the “sensibilité à la plasmine” value [2] was “plus sensible à la plasmine que le produit de référence A3”.

Reference: patent EP0280610B1, “Dipeptides, preparation process and use in dosing proteases” (SERBIO, priority 1987, dated 1992)
